# PMC5605686, “Ang-(1-7) is an endogenous β-arrestin-biased agonist of the AT1 receptor with protective action in cardiac hypertrophy” (Scientific Reports, 2017)
# Read-outs that look alike come from different tables or passages of the source.
# B1: angiotensin-(1-7) (peptide)
# peptide: DRVYIHP
# notes: heptapeptide angiotensin-(1-7), cut from AngII by ACE2 or from AngI by endopeptidases; printed in three-letter code; also called Ang-(1-7); Ang1-7
# Tests used:
# AT1R [1] = biological target: T1, AT1R (Homo sapiens, UniProt P30556); experiment: Competition binding assay against [3H]AngII in whole HEK293T cells transiently expressing the AT1R
# T1 construct: expressed in transfected cells; host or cells: HEK293T
# T1 sequence (P30556 1-359): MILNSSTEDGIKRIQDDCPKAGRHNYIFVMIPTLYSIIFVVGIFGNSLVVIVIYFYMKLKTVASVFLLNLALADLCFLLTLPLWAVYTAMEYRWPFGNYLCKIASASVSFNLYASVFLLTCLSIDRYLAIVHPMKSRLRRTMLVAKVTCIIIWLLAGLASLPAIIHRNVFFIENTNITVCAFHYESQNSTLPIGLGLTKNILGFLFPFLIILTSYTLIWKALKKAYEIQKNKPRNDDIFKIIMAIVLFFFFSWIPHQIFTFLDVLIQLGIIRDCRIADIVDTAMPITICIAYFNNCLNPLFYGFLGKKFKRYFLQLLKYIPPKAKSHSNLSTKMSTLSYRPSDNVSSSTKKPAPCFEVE
# Procedure: (§1) HEK293T cells were cultured in DMEM supplemented with 10% heat-inactivated fetal bovine serum and 100 U/mL penicillin/streptomycin at 37 °C under 5% CO2. Cells were seeded in 100-mm dishes and 48 hours before the experiments, transiently transfected with the AT1R (alone or in combination with BRET-based biosensors). Transient transfections were performed using 25 kDa linear polyethylenimine (PEI – Polysciences, Warrington, PA, USA) at a ratio of 3:1 PEI/DNA. The total amount of transfected DNA was kept constant (10 μg/dish) by the addition of salmon sperm DNA.
# Binding assays were performed in whole HEK293T cells at 48 hours after transfection. Twenty-four hours before the experiment, transfected cells were transferred to 24-well plates, treated with poly-L-lysine, and then incubated overnight at 37 °C, in a 5% CO2 environment. […] Samples were collected and mixed with 3 mL of scintillation liquid, and radioactivity was measured using a Liquid Scintillation Counter (Packard Tri-Carb 2100TR – PerkinElmer).
# AT1R [2] = biological target: T1, AT1R; experiment: BRET-based biosensor assay of Gq activation (Gαq-RLucII / Gγ1-GFP10) in HEK293T cells expressing AT1R; format: cell-based
# Procedure: as §1
# (§2) HEK293T cells transiently expressing the AT1R (or AT1R-GFP) and BRET-based biosensors (Gαq-RLucII or Gαi3-RLucII, Gβ1 and Gγ1-GFP10; RLucII-β-arr1-GFP10; RLucII-β-arr2-GFP10; β-arr1-RLucII; β-arr2-RLucII) were washed once with PBS, detached, and seeded in 96-well white plates (OptiPlate – PerkinElmer, Waltham, MA, USA). Following agonist stimulation, cells were incubated at 37 °C and the luciferase substrate (coelenterazine H for BRET1 or coelenterazine 400a for BRET2 – Biotium, Hayward, CA, USA) was added 5 min before reading BRET in a Victor^TM X Light Luminescence microplate reader (PerkinElmer) equipped with different donor/acceptor emission filter sets. […]
# AT1R [3] = biological target: T1, AT1R; experiment: Intracellular calcium mobilization assay (FLIPR Calcium 5) in HEK293T cells expressing AT1R; format: cell-based
# Procedure: Cells were seeded in 100-mm dishes and 48 hours before the experiments, transiently transfected with the AT1R (alone or in combination with BRET-based biosensors). Transient transfections were performed using 25 kDa linear polyethylenimine (PEI – Polysciences, Warrington, PA, USA) at a ratio of 3:1 PEI/DNA. The total amount of transfected DNA was kept constant (10 μg/dish) by the addition of salmon sperm DNA. Twenty-four hours after transfection, HEK293T cells were washed once with PBS, detached, and seeded in 96-well clear-bottom black plates (Cellstar – Greiner Bio-One, Monroe, NC, USA) precoated with poly-L-lysine (Sigma-Aldrich, St. Louis, MO, USA). Cells were cultured in supplemented DMEM without phenol red (Gibco) at a density of 50,000 cells/well for an additional 24-hour period. […] To provide a baseline level, fluorescence was recorded every 2 seconds during 16 seconds. Following agonist stimulation, fluorescence continued to be recorded every 2 seconds for 90 seconds.
# AT1R [4] = biological target: T1, AT1R; experiment: BRET-based biosensor assay of Gi3 activation in HEK293T cells expressing AT1R; format: cell-based
# Procedure: as §1, §2
# AT1R [5] = experiment: BRET assay of β-arrestin 1 recruitment to AT1R-GFP (β-arr1-RLucII); format: cell-based; settings: for β-arr1 recruitment Emax (%): percentage of the maximum values obtained for AngII
# Procedure: as §1
# (§3) HEK293T cells transiently expressing the AT1R (or AT1R-GFP) and BRET-based biosensors (Gαq-RLucII or Gαi3-RLucII, Gβ1 and Gγ1-GFP10; RLucII-β-arr1-GFP10; RLucII-β-arr2-GFP10; β-arr1-RLucII; β-arr2-RLucII) were washed once with PBS, detached, and seeded in 96-well white plates (OptiPlate – PerkinElmer, Waltham, MA, USA). Following agonist stimulation, cells were incubated at 37 °C and the luciferase substrate (coelenterazine H for BRET1 or coelenterazine 400a for BRET2 – Biotium, Hayward, CA, USA) was added 5 min before reading BRET in a Victor^TM X Light Luminescence microplate reader (PerkinElmer) equipped with different donor/acceptor emission filter sets. The BRET signal was determined as the ratio of light emitted by fluorescently-labeled biosensors, detected with energy acceptor filters (530 ± 20 nm for BRET1 or 515 ± 20 nm for BRET2), and light emitted by RLucII-tagged biosensors, detected with energy donor filters (480 ± 20 nm for BRET[1] or 410 ± 40 nm for BRET2). The specific BRET signal was defined as the difference between the total BRET signals and the one obtained with RLucII alone.
# AT1R [6] = experiment: BRET assay of β-arrestin 2 recruitment to AT1R-GFP (β-arr2-RLucII); format: cell-based; settings: for β-arr2 recruitment Emax (%): percentage of the maximum values obtained for AngII
# Procedure: as §1, §3
# AT1R [7] = biological target: T1, AT1R; experiment: Intramolecular BRET assay of β-arrestin 1 conformational changes (RLucII-β-arr1-GFP10); format: cell-based
# Procedure: (§4) Receptor promoted activation of β-arrestin results in a conformational rearrangement that can be monitored by BRET-based double brilliance biosensors assessing changes in BRET between RLucII and GFP10 fused respectively to the N- and C-termini of β-arrestins[35]–[37]. Therefore, to assess whether the recruitment of β-arrestins to the AT1R by Ang-(1-7) leads to activation, we monitored the agonist-promoted change in the intramolecular BRET.
# (§5) HEK293T cells were cultured in DMEM supplemented with 10% heat-inactivated fetal bovine serum and 100 U/mL penicillin/streptomycin at 37 °C under 5% CO2. […]
# as §2
# AT1R [8] = biological target: T1, AT1R; experiment: Intramolecular BRET assay of β-arrestin 2 conformational changes (RLucII-β-arr2-GFP10); format: cell-based
# Procedure: as §4, §5, §2
# AT1R [9] = biological target: T1, AT1R; experiment: ERK1/2 phosphorylation by Western blotting in cells transiently expressing the AT1R; format: cell-based; settings: 1 μM, 2-30 minutes, compared to AngII
# Procedure: Cells transiently expressing the AT1R were seeded on 6-well plates in fully supplemented DMEM and kept at 37 °C. […] Cells were lysed with lysis buffer consisting of 10 mM Tris-HCl, pH 7.5, 150 mM NaCl, 1 mM EDTA, 1mM EGTA, 0.1% SDS, 1% Nonidet P-40 and the following protease inhibitors: 2 mM PMSF, 100 µg/mL SBTI, 10 µg/mL leupeptin, 100 µg/mL aprotinin, 10 mM benzamidin and 2 mM sodium orthovanadate. Following homogenization at 4 °C, during 30 minutes, cellular lysates were centrifuged for 15 minutes (18,000 × g) at 4 °C and total protein from the supernatants was quantified by the Bradford method (Bio-Rad, Hercules, CA). After that, 50 µg of total protein were resolved in SDS-PAGE, transferred to nitrocellulose membranes and Western blotting was performed against total ERK (tERK) and phosphorylated ERK (pERK) (both antibodies from Santa Cruz Biotechnology, Santa Cruz, CA, USA; and molecular size markers from ThermoFisher Scientific, Catalog Number 26610). Blots were captured with ImageQuant 350 (GE Healthcare, Piscataway, NJ, USA). Densitometric values obtained after analyses with ImageJ program (http://rsb.info.nhi.gov/ij/) were used to calculate a ratio pERK/tERK, and corresponding results were plotted using GraphPad software (GraphPad, San Diego, CA) as fold of increase over the basal value obtained with vehicle-treated control.
# [10] = system: isoproterenol-induced cardiac hypertrophy; experiment: Isoproterenol-induced cardiac hypertrophy in rats (HW/BW ratio, left ventricular wall thickness); format: in vivo, Wistar rats; settings: 7 days
# Procedure: (§6) The isoproterenol-induced cardiac hypertrophy experimental model was chosen aiming to avoid any involvement of the RAS, as it is known that other models such as pressure-overload, SHR, or mRen2 involve RAS components[50],[60],[61]. Cardiac hypertrophy was induced in male, 6 weeks-old Wistar rats by administration of Isoproterenol [(Iso) 2 mg/kg per day, i.p. diluted in saline, for 7 days]. All experimental protocols were performed in accordance with the Brazilian Council for Control of Animal Experimentation - “Conselho Nacional de Controle de Experimentação Animal” (CONCEA), Brazil; and approved by the Animal Ethical Committee from the Ribeirão Preto Medical School, University of São Paulo (CEUA).
# (§7) Rats receiving Iso were randomly submitted to treatment for 7 days with either vehicle, Ang-(1-7) [24 μg/kg per hour, via ALZET® osmotic minipumps (Durect, Cupertino, CA, USA)], Ang-(1-7) plus Losartan (10 mg/kg per day orally), Ang-(1-7) plus A779 (744 μg/kg per day i.p.), or Ang-(1-7) plus Losartan plus A779 (same doses as described). Doses and administration methods of drugs were based in previously published literature[62]–[66].
# Cardiac hypertrophy was confirmed by cardiac mass and histomorphometric analyses. To determine cardiac mass, hearts were removed, dried and weighted. Heart weight (HW) was normalized by the body weight (BW) (HW/BW*1000). For histomorphometric analysis, hearts were cut transversely, fixed in paraformaldehyde (4%) for 24 hours, and kept in ethanol (70%) until dehydration, which consisted in sequential washes with 70, 80, 90 and 100% ethanol. Samples were cleared in xylene and embedded in paraffin. Transversal sections (6 µm) were obtained from the cardiac samples at intervals of 40 µm and stained with hematoxylin and eosin. Images were captured using an Olympus BK 50 microscope (Olympus Corporation of the Americas, Center Valley, PA, USA) equipped with a SPOT RT3 digital camera (Diagnostic Instruments, Inc., Sterling Heights, MI, USA) and measured with ImageJ software (NIH, USA).
# [11] = system: isoproterenol-induced cardiac hypertrophy; experiment: End-diastolic pressure (EDP) in rats with isoproterenol-induced cardiac hypertrophy; format: in vivo, Wistar rats; settings: 24 μg/kg per hour, osmotic mini-pump, 7 days, concomitantly with isoproterenol
# Procedure: as §6
# as §7, with “Doses and administration methods of drugs were based in previously published literature[62]–[66].” left out
# Rats were anesthetized with isoflurane (5% for induction and 2–2.5% to maintain anesthesia). […] After stabilization, signals were continuously recorded using a pressure-volume conductance system (MPVS, Millar Instruments) connected to a Power Lab/4SP (ADI Instruments, Sydney, NSW, Australia) feeding the digital signal to an […].
# [12] = biological target: T2, angiotensin II type 1 receptor (UniProt P30556 1-359); experiment: cell-based or functional assay
# T2 sequence (looked up): T1 sequence (P30556 1-359)
# AT1R-GFP = biological target: T3, AT1R-GFP (UniProt P30556 1-359); experiment: cell-based or functional assay
# T3 sequence (looked up): T1 sequence (P30556 1-359)
# [13] = biological target: T2, angiotensin II type 1 receptor; experiment: radioligand binding; competition against 0.5 nM [^3H]AngII on whole HEK293T cells transiently expressing AT1R; 24 h at 4 °C; 25 mM Tris-HCl pH 7.4, 5 mM MgCl2, 0.1% BSA, 100 μg/mL bacitracin; settings: one partner purified
# [14] = 24 μg/kg per hour, osmotic mini-pump, concomitantly with isoproterenol
molecule,measurement,setting,value
"CC[C@H](C)[C@H](NC(=O)[C@H](Cc1ccc(O)cc1)NC(=O)[C@@H](NC(=O)[C@H](CCCNC(=N)N)NC(=O)[C@@H](N)CC(=O)O)C(C)C)C(=O)N[C@@H](Cc1c[nH]cn1)C(=O)N1CCC[C@H]1C(=O)O [Ang-(1-7), Asp-Arg-Val-Tyr-Ile-His-Pro]",Ki,"AT1R [1]; competition against 0.5 nM [3H]AngII, HEK293T cells expressing AT1R, mean ± SEM, read-out: Binding pKi (converted)",219 nM
same,Ki,"AT1R [1]; competition binding against [3H]AngII, read-out: affinity for the AT1R",~200 nM
same,Emax,AT1R [2]; HEK-293T,12.8%
same,"Gq activation (separation of Gαq-RLucII from Gγ1-GFP10), in words","AT1R [2]; any of the concentrations tested, HEK293T cells expressing AT1R",did not promote the separation of Gαq-RLucII from Gγ1-GFP10
same,Emax,"AT1R [3]; HEK-293T, read-out: Ca2+ mobilization Emax (%)",24.8%
same,"intracellular Ca2+ mobilization, in words","AT1R [3]; concentration-response curve, HEK293T cells expressing AT1R",only a weak increase in intracellular Ca^2+ levels
same,"Gi3 activation, in words",AT1R [4],did not trigger Gi3 activation
same,β-arr1 recruitment pEC50,"AT1R [5]; BRET, mean ± SEM",6.38 ± 0.14
same,β-arr1 recruitment Emax (%),AT1R [5],67.8%
same,β-arr1 recruitment Emax (%),AT1R [5]; listed as Ang1-7,~70%
same,β-arr2 recruitment pEC50,"AT1R [6]; BRET, mean ± SEM",6.56 ± 0.09
same,β-arr2 recruitment Emax (%),AT1R [6],87.7%
same,β-arr2 recruitment Emax (%),AT1R [6]; listed as Ang1-7,~90%
same,EC50,"AT1R [7]; intramolecular BRET, mean ± SEM, read-out: β-arr1 conf. changes pEC50 (converted)",245 nM
same,Emax,AT1R [7]; read-out: β-arr1 conf. changes Emax (%),69.1%
same,EC50,"AT1R [8]; intramolecular BRET, mean ± SEM, read-out: β-arr2 conf. changes pEC50 (converted)",1380 nM
same,Emax,AT1R [8]; read-out: β-arr2 conf. changes Emax (%),64.4%
same,ERK1/2 phosphorylation,AT1R [9],partial agonist resulting in lower and more transient activation
same,cardiac hypertrophy (left ventricular wall thickness),[10]; [14],partially blocked the development of cardiac hypertrophy
same,heart weight/body weight (HW/BW) ratio,[10]; [14],partially blocked
same,end-diastolic pressure (EDP),[11],completely prevented the increase in EDP
"CCCCc1nc(Cl)c(CO)n1Cc1ccc(-c2ccccc2-c2nn[nH]n2)cc1 [Losartan, reference compound]","blockade of the effect of Ang-(1-7) on the cardiovascular parameters (HW/BW, wall thickness, EDP)","[10]; co-treatment with Ang-(1-7), 10 mg/kg per day orally",did not prevent the effect of Ang-(1-7)
B1,"β-arrestin 1 conformational change (intramolecular BRET, RLucII-β-arr1-GFP10) in HEK293T cells expressing AT1R, pEC50",[12],6.61
same,"recruitment of β-arr1-RLucII to AT1R-GFP (BRET), pEC50 of the agonist",AT1R-GFP,6.38
same,pKi,[13],6.66
